Measurements published in US6696492B1, “Use of L carnitine and its alkanoyl dervatives for the preparation of a medicament useful for the treatment of patients suffering from diabetic and/or dysmetabolic nephropathy” (Sigma-Tau Industrie Farmaceutiche Riunite S.p.A., priority 1999, dated 2004).

Key:
[1] = renally insufficient children; cited from earlier work
[2] = Tolerability in patients with diabetes mellitus and peripheral arteriopathy; format: in vivo, human; settings: 6 months' treatment
[3] = cited from earlier work
[4] = Clinical pilot study, type 2 diabetes mellitus and renal insufficiency; format: in vivo, human; settings: after 6 months' treatment, 1.5 grams/day oral
Procedure: (§1) Lastly, a clinical pilot study has been conducted in a small patient sample, consisting of 8 patients suffering from type 2 diabetes mellitus and diabetic nephropathy in the microalbuminuria stage without evidence of frank renal insufficiency and 10 patients suffering from type 2 diabetes mellitus and renal insufficiency (serum creatinine>2 mg/dl and creatinine clearance <40 ml/min).
(§2) Both patient groups were treated with 1.5 grams/day of PLC administered in three distinct doses of 500 mg at three different times of day (1 tablet after breakfast, lunch and dinner) for a total period of 6 months.

[5] = Clinical physiology study: forearm blood flow by plethysmography, intravenous infusion of PLC; format: in vivo, human; settings: 6 healthy volunteers, after 60-minute intravenous infusion at 12 micrograms per minute
Procedure: A clinical physiology study was conducted in human subjects for the purpose of establishing whether PLC was also capable of exerting a vasodilating action at the microcirculatory level. […] This study was conducted in 6 healthy volunteers, whose overall blood flow was measured by plethysmography in the forearm, both in basal conditions and after 60-minute intravenous infusion of PLC at the dose of 12 micrograms per minute. The choice of dose to be administered was based on kinetics calculations, in order to try and achieve a steady state plasma concentration of PLC similar to the one obtained with chronic oral administration of 2 grams of PLC.

[6] = Clinical study: forearm blood flow by plethysmography, local intra-arterial PLC, then nitro-L-arginine; format: in vivo, human; settings: 8 healthy volunteers, local intra-arterial administration
[7] = Clinical pilot study, type 2 diabetes mellitus and diabetic nephropathy in the microalbuminuria stage; format: in vivo, human; settings: after 6 months' treatment, 1.5 grams/day oral; before treatment 37.8±4.6; p<0.01; 8 patients
Procedure: as §1, §2

[8] = organ ischaemia and reperfusion; cited from earlier work

SMILES	serum triglyceride levels [1]	side effects in man [2]	functional capability and perfusion of the peripheral nerves ([3]; streptozocin-diabetic rats (Hotta et al. 1996))	plasma lipid levels (total cholesterol, triglycerides, LDL) ([3]; streptozocin-diabetic rats)	24-h proteinuria ([4]; before treatment 6.2±2.3, p<0.01, 10 patients)	creatinine clearance ([4]; before treatment 34.6±4.6, spread ±7.3)	LDL ([4]; before treatment 169±15)	triglycerides ([4]; before treatment 217±75 mg/dl)	increase in blood flow as compared to resting basal flow [5]	vasodilatory action [6]	urinary microalbumin excretion rate [7]	damage induced by the ischaemia [8]
C[N+](C)(C)C[C@H](O)CC(=O)[O-] [L-carnitine]	reduces the serum triglyceride levels											
CCC(=O)O[C@H](CC(=O)[O-])C[N+](C)(C)C [PLC, propionyl L-carnitine]		no severe unwanted effects	capable of improving	reduced	3.1±1.2 g/24 h	42.7 mL/min	158 ± 10 mg/dL	192±62 m/dl	approximately 25%	confirmed the vasodilatory action	21.3±5.1 mg/g creatinine	capable of reducing the damage induced by the ischaemia
